Test results from US10329302B2, “Bicyclic-fused heteroaryl or aryl compounds” (Pfizer Inc., priority 2014, dated 2019).
Read-outs that look alike come from different tables or passages of the source.

Tested on: R848-induced TNFα production by human peripheral blood mononuclear cells (PBMCs)
Test: R848 Induced TNFα in Human PBMC Assay
Format: cell-based
[1] = Homo sapiens, PBMC, 3 h, read-out: R848-induced TNFa PBMC IC50 (nM)
[2] = human PBMC, absence of serum, 3 hours, read-out: R848-induced TNFa PBMC IC50

Structure (SMILES) | IC50 [1] | IC50 [2]
CCOc1cc2c(OC[C@@H]3C[C@](C)(F)C(=O)N3)ccnc2cc1C(N)=O [Example 287, 6-ethoxy-4-{[(2S,4S)-4-fluoro-4-methyl-5-oxopyrrolidin-2-yl]methoxy}quinoline-7-carboxamide] | 2300 nM | –
COc1cc2c(OC[C@H]3NC(=O)[C@H]4C3[C@H]4C)nccc2cc1C(N)=O (stereo in doubt) [Example 285, 7-methoxy-1-(((1R,2S,5R,6R)-6-methyl-4-oxo-3-azabicyclo[3.1.0]hexan-2-yl)methoxy)isoquinoline-6-carboxamide] | 1060 nM | –
COc1cc2c(OC[C@@H]3NC(=O)[C@H](F)[C@@H]3C)nccc2cc1C(N)=O [Example 288, 1-{[(2R,3R,4R)-4-fluoro-3-methyl-5-oxopyrrolidin-2-yl]methoxy}-7-methoxyisoquinoline-6-carboxamide] | 1810 nM | –
COc1cc2c(OC[C@H]3NC(=O)[C@@H]4C[C@]34C)nccc2cc1C(N)=O [Example 295, 7-methoxy-1-{[(1S,2S,5R)-1-methyl-4-oxo-3-azabicyclo[3.1.0]hex-2-yl]methoxy}isoquinoline-6-carboxamide] | 67 nM | –
CC[C@@H]1[C@H]2C(=O)N[C@H](COc3nccc4cc(C(N)=O)c(OC)cc34)[C@@H]12 [Example 300, 1-{[(1S,2S,5R)-6-ethyl-4-oxo-3-azabicyclo[3.1.0]hex-2-yl]methoxy}-7-methoxyisoquinoline-6-carboxamide] | 931 nM | –
COc1cc2c(OC[C@@H]3C[C@@](F)(C4CCOCC4)C(=O)N3)nccc2cc1C(N)=O [Example 284, 1-{[(2S,4R)-4-fluoro-5-oxo-4-(tetrahydro-2H-pyran-4-yl)pyrrolidin-2-yl]methoxy}-7-methoxyisoquinoline-6-carboxamide] | 320 nM | –
COc1cc2c(OC[C@H]3NC(=O)[C@@H](F)[C@@H]3C)nccc2cc1C(N)=O [Example 203, 1-{[(2S,3R,4S)-4-fluoro-3-methyl-5-oxopyrrolidin-2-yl]methoxy}-7-methoxyisoquinoline-6-carboxamide] | 47 nM | –
[2H]C([2H])([2H])C([2H])([2H])[C@@H]1[C@H](F)C(=O)N[C@@H]1COc1nccc2cc(C(N)=O)c(OC)cc12 [Example 344, 1-{[(2S,3S,4S)-3-(pentadeutero)ethyl-4-fluoro-5-oxopyrrolidin-2-yl]methoxy}-7-methoxyisoquinoline-6-carboxamide] | – | 0.5 nM
COc1cc2c(OC[C@H]3NC(=O)[C@@H]4CC[C@H]34)nccc2cc1C(N)=O [Example 308, 7-methoxy-1-{[(1S,2S,5R)-4-oxo-3-azabicyclo[3.2.0]hept-2-yl]methoxy}isoquinoline-6-carboxamide] | 134 nM | –
COc1cc2c(OC[C@H]3NC(=O)[C@]4(C)C[C@H]34)nccc2cc1C(N)=O [Example 297, 7-methoxy-1-{[(1S,2S,5R)-5-methyl-4-oxo-3-azabicyclo[3.1.0]hex-2-yl]methoxy}isoquinoline-6-carboxamide] | 7120 nM | –
COc1cc2c(OC[C@H]3NC(=O)C[C@H]3C3CC3)nccc2cc1C(N)=O [Example 305, 1-{[(2S,3S)-3-cyclopropyl-5-oxopyrrolidin-2-yl]methoxy}-7-methoxyisoquinoline-6-carboxamide] | 57 nM | –
[2H][C@]1(CC)[C@@H](COc2nccc3cc(C(N)=O)c(OC)cc23)NC(=O)[C@@]1([2H])F [Example 374, 1-{[(2S,3S,4S)-3-ethyl-4-fluoro-5-oxo(3,4-bisdeutero)pyrrolidin-2-yl]methoxy}-7-methoxyisoquinoline-6-carboxamide] | – | 1.2 nM
[2H]C([2H])([2H])Oc1cc2c(OC[C@H]3NC(=O)[C@@H](F)[C@H]3CC)nccc2cc1C(N)=O [Example 338, 1-{[(2S,3S,4S)-3-ethyl-4-fluoro-5-oxopyrrolidin-2-yl]methoxy}-7-[(trideutero)methyloxy]isoquinoline-6-carboxamide] | – | 3 nM
